Data set [1] relates to soluble epoxide hydrolase (sEH). Put plainly: Fluorescent assay for mouse and human soluble epoxide hydrolase (CMNPC substrate). The class given is biochemical. As to conditions: substrate CMNPC 5 μM, 30° C. From the text:
Fluorescent Assay for Mouse and Human Soluble Epoxide Hydrolase Recombinant mouse sEH (MsEH) and human sEH (HsEH) were produced in a baculovirus expression system as previously reported. Grant et al., J. Biol. Chem., 268:17628-17633 (1993); Beetham et al., Arch. Biochem. Biophys., 305:197-201 (1993). The expressed proteins were purified from cell lysate by affinity chromatography. Wixtrom et al., Anal. Biochem., 169:71-80 (1988). Protein concentration was quantified using the Pierce BCA assay using bovine serum albumin as the calibrating standard. The preparations were at least 97% pure as judged by SDS-PAGE and scanning densitometry. They contained no detectable esterase or glutathione transferase activity which can interfere with the assay. The assay was also evaluated with similar results in crude cell lysates or homogenate of tissues. The IC50s for each inhibitor were determined according to the following procedure: […] Jones P. D. et. al.; Analytical Biochemistry 2005; 343: pp. 66-75) Bis/Tris HCl 25 mM pH 7.0 containing 0.1 mg/mL of BSA (buffer […] at 0.25 mM in DMSO. Mother solution of enzyme in buffer A (Mouse sEH at 6 μg/mL and Human sEH at 5 μg/mL). Inhibitor dissolved in DMSO at the appropriate concentration. In a black 96 well plate, fill all the wells with 150 μL of buffer A. Add 2 μL of DMSO in well A2 and A3, and then add 2 μL of inhibitor solution in A1 and A4 through A12. Add 150 μL of buffer A in row A, then mix several time and transfer 150 μL to row B. Repeat this operation up to row H. The 150 μL removed from row H is discarded. Add 20 μL of buffer A in column 1 and 2, then add 20 μL of enzyme solution to column 3 to 12. Incubate the plate for 5 minutes in the plate reader at 30° C. During incubation prepare the working solution of substrate by mixing 3.68 mL of buffer A (4×0.920 mL) with 266 μL (2×133 μL) of substrate solution). At t=0, add 30 μL of working substrate solution with multi-channel pipette labeled “Briggs 303” and start the reading ([S]final: 5 μM). Read with ex: 330 nm (20 nm) and em: 465 nm (20 nm) every 30 second for 10 minutes. The velocities are used to analyze and calculate the IC50s.

Molecules are shown by their SMILES.

One may read the % Inhibition as the relative decrease from the control value, in per cent. Consider `NS(=O)(=O)c1ccc(NC(=O)NC23CC4CC(CC(C4)C2)C3)cc1` [Compound 1, 4-(3-Adamantan-1-yl-ureido)-benzenesulfonamide], for which, in data set [1] (Conc. 500 nM), the “% Inhibition” value stood at 92%.

In the case of `NS(=O)(=O)c1cccc(NC(=O)NC23CC4CC(CC(C4)C2)C3)c1` [Compound 2, 3-(3-Adamantan-1-yl-ureido)-benzenesulfonamide], in data set [1] (Conc. 500 nM), the “% Inhibition” value amounted to 94%.

Take `NS(=O)(=O)c1cccc(NC(=O)Nc2ccc(C(F)(F)F)cc2)c1` [Compound 4, 3-[3-(4-Trifluoromethyl-phenyl)-ureido]-benzenesulfonamide]: the “% Inhibition” value in data set [1] (Conc. 50 nM) was 75%.

In the case of `O=C(Nc1ccc(C(F)(F)F)cc1)Nc1ccc(S(=O)(=O)NCCN2CCOCC2)cc1` [Compound 7, N-(2-Morpholin-4-yl-ethyl)-4-[3-(4-trifluoromethyl-phenyl)-ureido]-benzenesulfonamide], in data set [1] (Conc. 50 nM), the “% Inhibition” value came out at 91%.

For `O=C(Nc1ccc(C(F)(F)F)cc1)Nc1cccc(S(=O)(=O)NCCN2CCOCC2)c1` [Compound 8, N-(2-Morpholin-4-yl-ethyl)-3-[3-(4-trifluoromethyl-phenyl)-ureido]-benzenesulfonamide], the “% Inhibition” value in data set [1] (Conc. 50 nM) was 94%.

One may read the melting point as the temperature, or range, at which the solid turns liquid. `CNS(=O)(=O)c1cccc(NC(=O)Nc2ccc(C(F)(F)F)cc2)c1` [Compound 12, N-methyl-3-[3-(4-trifluoromethylphenyl)ureido]benzenesulfonamide]: the melting point lay within 238 to 240 °C. Further, the “% Inhibition” value in data set [1] (Conc. 50 nM) was 85%.

As for `CC(C)N1CCN(S(=O)(=O)c2ccc(NC(=O)Nc3ccc(C(F)(F)F)cc3)cc2)CC1` [Compound 15, 1-[4-(4-Isopropyl-piperazine-1-sulfonyl)-phenyl]-3-(4-trifluoromethyl-phenyl)-urea], the “% Inhibition” value in data set [1] (Conc. 50 nM) is listed as 90%.

Regarding `CC(C)N1CCN(S(=O)(=O)c2cccc(NC(=O)Nc3ccc(C(F)(F)F)cc3)c2)CC1` [Compound 16, 1-[3-(4-Isopropyl-piperazine-1-sulfonyl)-phenyl]-3-(4-trifluoromethyl-phenyl)-urea], in data set [1] (Conc. 50 nM), the “% Inhibition” value was found to be 92%.

`CC(=O)NS(=O)(=O)c1cccc(NC(=O)Nc2ccc(C(F)(F)F)cc2)c1` [Compound 20, N-(3-(3-(4-(trifluoromethyl)phenyl)ureido)phenylsulfonyl)aceta-mide] displayed a melting point of 115 to 121 °C. Further, the “% Inhibition” value in data set [1] (Conc. 5000 nM) came out at 85%.

Take `O=C(O)CCCNS(=O)(=O)c1ccc(NC(=O)Nc2ccc(C(F)(F)F)cc2)cc1` [Compound 23, 4-{4-[3-(4-Trifluoromethyl-phenyl)-ureido]-benzenesulfonylamino}-butyric acid]: the melting point was in the range of 172 to 175 °C. In addition, in data set [1] (Conc. 50 nM), the “% Inhibition” value is 80%.

As for `O=C(Nc1ccc(C(F)(F)F)cc1)Nc1ccc(S(=O)(=O)Nc2ccc(Cl)cc2)cc1` [Compound 25, N-(4-Chloro-phenyl)-4-[3-(4-trifluoromethyl-phenyl)-ureido]-benzenesulfonamide], the “% Inhibition” value in data set [1] (Conc. 50 nM) is on record as 99%.

Compound `O=C(Nc1ccc(C(F)(F)F)cc1)Nc1cccc(S(=O)(=O)Nc2ccc(Cl)cc2)c1` [Compound 26, N-(4-Chloro-phenyl)-3-[3-(4-trifluoromethyl-phenyl)-ureido]-benzenesulfonamide] returned a melting point of 196 to 198 °C. Besides, the “% Inhibition” value in data set [1] (Conc. 50 nM) is 99%.

Regarding `O=C(Nc1ccc(C(F)(F)F)cc1)Nc1ccc(S(=O)(=O)N2CCOCC2)cc1` [Compound 27, 1-[4-(Morpholine-4-sulfonyl)-phenyl]-3-(4-trifluoromethyl-phenyl)-urea], in data set [1] (Conc. 50 nM), the “% Inhibition” value was found to be 95%.

On to `O=C(Nc1ccc(C(F)(F)F)cc1)Nc1cccc(S(=O)(=O)N2CCOCC2)c1` [Compound 28, 1-[3-(Morpholine-4-sulfonyl)-phenyl]-3-(4-trifluoromethyl-phenyl)-urea], for which the “% Inhibition” value in data set [1] (Conc. 50 nM) is 93%.

The values are drawn from patent US20080207621A1, “SOLUBLE EPOXIDE HYDROLASE INHIBITORS” (Arete Therapeutics, Inc., priority 2006, published 2008).
